{"source": "patent US5447915A", "about": "“Terminally blocked antiviral peptides” (priority 1992, dated 1995)", "key": {"[1]": {"biological_target": "T1, human immunodeficiency virus (HIV-1) glycoprotein gp120 (Human immunodeficiency virus type 1 group M subtype B, UniProt P03375)", "T1 construct": "a solution of gp120 (20 μg/ml) (synthesized in vitro from baculovirus and obtained from MicroGeneSys); purchased MicroGeneSys, West Haven, Conn; host or cells: gp120 from baculovirus expression; CD4 on HSBCD4-M.23 cells (HSB-2 clone transfected with CD4 cDNA)", "format": "binding", "conditions": "HSBCD4-M.23 cells; for inhibition of gp120 binding to CD4 (corrected mean fluorescence of CD4-expressing cells): gp120 preincubated with peptide 1 hour 37° C., about 50 μM to 900 μM", "procedure": "The peptides prepared as described in Example 1 were characterized as to their ability to bind to the human immunodeficiency virus (HIV-1) glycoprotein gp120. This ability was assayed on the basis of the peptides ability to inhibit binding of gp120 to the human CD4 protein.\nOn the day of the assay the peptides were diluted 10-fold in phosphate buffered saline (PBS) and 2-fold serial dilutions made into PBS previously adjusted to the same DMSO concentration (10%). 25 μl each of each peptide solution and a solution of gp120 (20 μg/ml) (synthesized in vitro from baculovirus and obtained from MicroGeneSys, West Haven, Conn.) were combined and incubated at 37° C. for 1 hour. A total of 3-5×10^5 HSBCD4-M.23 cells [derived from a clone of the pre-T cell leukemia line HSB-2 (obtained from the American Type Culture Collection (ATCC), Rockville, Md.) which expresses human CD4 as a result of transfaction of CD4 cDNA sequences; Diamond et al., Proc. Natl. Acad. Sci. 87: xxxx (1990)] were pelleted in the walls of a 96-well V-bottom microtiter plate, resuspended with the preincubated gp 120-peptide mixture and allowed to incubate at 4° C. for 1 hour. The cells were then pelleted and resuspended in 50μl of a solution containing rabbit anti-gp120 antibody (diluted 1:400 in PBS; MicroGeneSys, West Haven, Conn.) and incubated at 4° C. for 30 min. The cells were again pelleted, washed with 100 μl PBS and resuspended in 50μl of a solution containing fluorescein isothiocyanate (FITC)-conjugated goat anti-rabbit antibody (diluted 1:20; Tago) and incubated at 4° C. for 30 min. The cells were pelleted and washed as before, and resuspended in 100 μl of a solution containing propidium iodine at a concentration of 25 μg/ml and transferred to tubes containing 400 μl PBS for flow cytometric analysis on an Epics V (Coulter) for FAtScan (Betton-Dickinson,Mountainview, Calif.). Cells were gated on propidium iodide to exclude dead cells. Green fluorescence was collected on the linear amplifier and the mean fluorescence calculated."}, "HIV-1": {"system": "HIV-1", "conditions": "peptide 80 μg/ml; after 4 days of co-cultivation for CPF(DD)", "method": "PBL-derived human T cells, infected with HIV-1, were washed extensively with RPMI 1640 media and then 10^4 infected T cells were added to 5×10^5 uninfected H9 cells in the presence or absence of CPF(DD) or CPF(δF) at concentrations of 80 μg/ml. Cells were co-cultivated and maintained at H9 cell densities of 5×10^5 cells/ml and tested after 2, .varies.and 6 days of co-cultivation. The extent of infection of H9 cells was determined by p24 antigen ELISA assay, performed 48 hours after washing the T-cell-H-9 cell mixture free of virus."}, "[2]": {"system": "conjugate formation between HBSCD4-M.23 cells and Daudi cells", "conditions": "peptide 100 μg/ml, gp120 20 μg/ml", "method": "Conjugate formation was assayed using HBSCD4-M.23 cells and cells from the human MHC-expressing cell line Daudi (available from ATCC). The HBSCD4-M.23 cells were labeled with 0.5 μg/ml sulfofluorescein diacetate (Molecular Probes, Eugene, Oreg.) and the Daudi cells were labeled with 40 ng/ml hydroethidine (Polysciences, Warrington, Pa.) and mixed at a 1:2 ratio (HBSCD4-M.23:Daudi) at a total concentration of 1×10^6 cells/mi. Cells were then incubated in 30 μl RPMI 1640 media at 37° C. for at least 90 minutes in the presence or absence of CPF(DD) or CPF(δF) (at concentrations of 100 μg/ml) and gp120 (20 μg/ml). At the end of the incubation, the cells were gently resuspended to preserve conjugates and scored by fluorescence microscopy. Positive conjugates were scored as at least two cells displaying one fluorescent color bound to at least one cell displaying the other fluorescent color. Samples were analyzed blinded as to their identity, and in duplicate, and at least three counts of 100 fluorescein-labeled cells were performed for each sample. The percentage of conjugates scored was calculated as the total number of conjugates scored divided by the total number of conjugates plus free CD4-expressing (fluorescein-labeled) cells."}, "HIV": {"system": "HIV", "test": "Inhibition of HIV infection of CD4-expressing human peripheral blood lymphocytes, p24 antigen", "format": "cell-based", "conditions": "peptide 160 μg/ml; human T cells from PBL", "method": "These cells were obtained by depleting peripheral blood mononuclear cells isolated by passage through nylon wool [Finberg et al., Science 249: 287-291 (1990)]using antibodies specific for CD8 (OKTS, obtained from ATCC) and CD16 (B73.1, a gift of G. Trinchieri) followed by treatment with antibody-coated magnetic beads [Haregerwoin et al., Nature 340: 309 (1989)]. This treatment enriches the cell population for CD4-expressing human peripheral T cells. Virus was incubated for 1 hour at 37° C. with varying concentrations of CPF(DD), or with CPF(6F) at a concentration of 160 μg/ml. The treated virus preparation was then incubated with cells for 1 hour at 37° C. Cells were washed twice and maintained in RPMI 1640/10% FCS supplemented with interleukin 2 [10 units/ml, Collaborative Research]. Cells were maintained and assayed for p24 production as described above."}, "[3]": {"system": "IL-2 production in 16CD4-9 T cell hybridoma cells", "conditions": "peptide 200 μg/ml, gp120 5-10 μg/ml, diluted 20-fold and reconcentrated by ultrafiltration", "method": "These gp120 solutions were then diluted 20-fold with PBS and the gp120 reconcentrated by ultrafiltration as described in Example 2. The recovered gp120 solutions were then combined with 1×10^5 16CD4-9 T cell hybridoma cells (available from ATCC) and 2×10^5 Daudi cells and cultured overnight at 37° C. IL-2 was detected in the culture supernatants using a cell proliferation assay [Watson, J. Exp. Med. 150: 1510-1515 (1979)], with the modification that proliferation was detected colorimetrically as the cleavage of 3-(4,5-dimethyl-thiazol)-2,6-diphenyl-tetrazolium bromide (MTT) [Finberg et al., Science 249: 287-291 (1990)]."}}, "note": "Non-standard residues stand in square brackets, D forms with d. Residues, ends and D or L forms follow the SMILES beside them. *: point of attachment. OBn = c1ccc(CO*)cc1", "data": [{"compound": "COC(=O)C(=O)N[C@H](Cc1ccccc1)C(=O)OCc1ccccc1", "note": "[CPF(δP), N-carbomethoxylcarbonyl-D-Phe-OBn]", "values": [{"measurement": "inhibition of gp120 binding to CD4 (corrected mean fluorescence of CD4-expressing cells)", "setting": "[1]", "result": "does not inhibit gp120 binding to CD4-expressing human cells"}]}, {"compound": "O=C(N[C@H](Cc1ccccc1)C(=O)OCc1ccccc1)[C@H]1CCCN1", "note": "[(DD) prolylphenylalanylbenzylester] (H-[dP]-[dF]-OBn)", "values": [{"measurement": "inhibition of gp120 binding to CD4 (corrected mean fluorescence of CD4-expressing cells)", "setting": "[1]", "result": "unable to inhibit gp120 binding"}]}, {"compound": "COC(=O)C(=O)N1CCC[C@@H]1C(=O)OCc1ccccc1", "note": "[CPF(δF), N-carbomethoxylcarbonyl-D-Pro-OBn]", "values": [{"measurement": "p24 antigen in supernatant after co-cultivation of infected T cells and uninfected H9 cells", "setting": "HIV-1", "result": "no different from those detected in co-cultures of T cells and H9 cells incubated without peptides"}, {"measurement": "inhibition of gp120 binding to CD4 (corrected mean fluorescence of CD4-expressing cells)", "setting": "[1]", "result": "does not inhibit gp120 binding to CD4-expressing human cells"}, {"measurement": "conjugate formation in presence of gp120 preincubated with peptide", "setting": "[2]", "result": "does not restrict gp120-mediated inhibition of conjugate formation"}, {"measurement": "kinetics and maximum production of p24", "setting": "HIV", "result": "does not effect either the kinetics or the maximum production of p24"}, {"measurement": "IL-2 production in presence of gp120 preincubated with peptide", "setting": "[3]", "result": "slight increase in the amount of IL-2"}]}, {"compound": "N-carbomethoxylcarbonyl-D-Pro-D-Ala-OBn [CPF(F→A)]", "values": [{"measurement": "concentration giving 50% inhibition of gp120 binding, fold higher than for CPF(LL)", "setting": "[1]; in comparison with CPF(LL)", "result": "2-5 fold"}]}]}
